Assay results reported in article PMC8217266 (Clinical Pharmacology and Therapeutics, 2021).

What was measured:
human MATE1 = target: T1, human MATE1 (Homo sapiens, UniProt Q96FL8); test: cell-based
T1 sequence (Q96FL8 1-570): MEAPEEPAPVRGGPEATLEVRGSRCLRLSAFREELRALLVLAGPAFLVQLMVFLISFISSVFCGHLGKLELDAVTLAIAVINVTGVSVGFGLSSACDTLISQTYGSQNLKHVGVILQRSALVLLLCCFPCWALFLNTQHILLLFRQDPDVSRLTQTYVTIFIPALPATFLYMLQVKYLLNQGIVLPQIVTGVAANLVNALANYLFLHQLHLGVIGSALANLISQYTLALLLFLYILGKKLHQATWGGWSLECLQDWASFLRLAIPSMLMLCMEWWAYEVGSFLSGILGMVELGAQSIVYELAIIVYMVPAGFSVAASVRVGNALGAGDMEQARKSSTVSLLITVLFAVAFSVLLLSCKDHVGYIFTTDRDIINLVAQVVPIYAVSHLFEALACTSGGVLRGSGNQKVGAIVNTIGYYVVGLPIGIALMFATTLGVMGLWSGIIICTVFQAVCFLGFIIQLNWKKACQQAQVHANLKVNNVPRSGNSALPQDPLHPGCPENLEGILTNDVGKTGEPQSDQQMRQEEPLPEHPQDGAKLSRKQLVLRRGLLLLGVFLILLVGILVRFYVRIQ

human OAT3 = target: T2, human OAT3 (Homo sapiens, UniProt Q8TCC7); test: cell-based
T2 sequence (Q8TCC7 1-542): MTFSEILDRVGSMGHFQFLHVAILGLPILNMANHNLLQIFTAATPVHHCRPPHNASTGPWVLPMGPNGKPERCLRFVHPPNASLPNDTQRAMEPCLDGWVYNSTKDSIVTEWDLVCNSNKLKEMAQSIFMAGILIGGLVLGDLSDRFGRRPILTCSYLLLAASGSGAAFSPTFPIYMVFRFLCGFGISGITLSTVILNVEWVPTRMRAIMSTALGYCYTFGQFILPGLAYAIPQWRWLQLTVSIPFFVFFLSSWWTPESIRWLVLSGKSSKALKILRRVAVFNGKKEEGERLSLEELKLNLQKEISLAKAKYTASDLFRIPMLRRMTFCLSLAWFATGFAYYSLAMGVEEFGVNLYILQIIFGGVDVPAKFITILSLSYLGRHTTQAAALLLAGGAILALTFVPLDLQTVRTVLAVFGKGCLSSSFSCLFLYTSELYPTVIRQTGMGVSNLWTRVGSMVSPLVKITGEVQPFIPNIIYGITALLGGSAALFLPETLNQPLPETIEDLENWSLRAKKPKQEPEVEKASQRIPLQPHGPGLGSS

human OATP2B1 = target: T3, human OATP2B1 (Homo sapiens, UniProt O94956); test: cell-based; conditions: IC50 OATP2B1, experimental, mean ± SD; stable cells; substrate ES
T3 sequence (O94956 1-709): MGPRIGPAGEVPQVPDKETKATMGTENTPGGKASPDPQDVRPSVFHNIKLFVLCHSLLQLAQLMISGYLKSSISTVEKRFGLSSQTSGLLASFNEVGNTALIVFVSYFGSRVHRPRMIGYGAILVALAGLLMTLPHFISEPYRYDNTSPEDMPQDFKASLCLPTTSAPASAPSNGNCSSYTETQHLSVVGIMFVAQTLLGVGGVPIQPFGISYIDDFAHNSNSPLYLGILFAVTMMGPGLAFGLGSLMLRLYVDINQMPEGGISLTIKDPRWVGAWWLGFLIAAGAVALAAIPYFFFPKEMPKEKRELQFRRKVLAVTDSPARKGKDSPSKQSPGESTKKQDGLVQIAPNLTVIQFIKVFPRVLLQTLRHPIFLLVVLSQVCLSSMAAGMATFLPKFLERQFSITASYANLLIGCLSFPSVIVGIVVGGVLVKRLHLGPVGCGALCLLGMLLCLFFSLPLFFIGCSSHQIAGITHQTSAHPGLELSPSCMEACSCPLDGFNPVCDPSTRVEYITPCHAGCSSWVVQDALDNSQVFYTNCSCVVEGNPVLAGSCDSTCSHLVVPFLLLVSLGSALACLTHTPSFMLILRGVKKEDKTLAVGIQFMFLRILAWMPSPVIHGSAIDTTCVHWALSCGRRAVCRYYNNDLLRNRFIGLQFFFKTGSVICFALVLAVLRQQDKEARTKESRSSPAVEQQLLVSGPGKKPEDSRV

[1] = tested on: transporters at major organ sites; test: Prediction of transporter-mediated inhibition / DDI potential; parameters: species or system human; conditions: of 11 transporters; FDA criteria
human OCT2 = target: T4, human OCT2 (Homo sapiens, UniProt O15244); test: cell-based; conditions: IC50 OCT2, experimental, mean ± SD; substrate metformin
T4 sequence (O15244 1-555): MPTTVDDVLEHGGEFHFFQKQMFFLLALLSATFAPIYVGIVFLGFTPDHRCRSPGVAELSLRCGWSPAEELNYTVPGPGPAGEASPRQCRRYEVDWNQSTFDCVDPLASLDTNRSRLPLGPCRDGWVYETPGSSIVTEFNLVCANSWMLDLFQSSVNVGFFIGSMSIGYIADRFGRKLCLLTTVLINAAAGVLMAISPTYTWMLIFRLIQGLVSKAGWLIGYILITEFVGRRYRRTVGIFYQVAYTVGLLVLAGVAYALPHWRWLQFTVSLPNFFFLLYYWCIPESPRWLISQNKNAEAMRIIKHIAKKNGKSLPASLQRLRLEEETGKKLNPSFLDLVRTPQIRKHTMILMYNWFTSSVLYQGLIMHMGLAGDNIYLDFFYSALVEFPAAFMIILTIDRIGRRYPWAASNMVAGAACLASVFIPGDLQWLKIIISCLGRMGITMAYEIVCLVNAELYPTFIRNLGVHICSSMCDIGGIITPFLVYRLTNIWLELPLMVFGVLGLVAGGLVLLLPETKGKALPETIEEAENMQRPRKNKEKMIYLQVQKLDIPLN

SMILES	IC50 (human MATE1) [µM]	IC50 (human OAT3) [µM]	IC50 (human OATP2B1) [µM]	No. of transporters at major organ sites inhibited at clinical concentrations [1]	IC50 (human OCT2) [µM]
CC(C)CN(C[C@@H](O)[C@H](Cc1ccccc1)NC(=O)O[C@H]1CO[C@H]2OCC[C@H]21)S(=O)(=O)c1ccc(N)cc1 [Darunavir]	43.8 ± 14.4	37.9 ± 9.5	30.6 ± 7.7	5	–
CCC(CC)COC(=O)[C@H](C)N[P@](=O)(OC[C@H]1O[C@@](C#N)(c2ccc3c(N)ncnn23)[C@H](O)[C@@H]1O)Oc1ccccc1 [Remdesivir]	0.4 ± 0.1	14 ± 1.7	3.5 ± 0.4	4	–
N#CC[C@H](C1CCCC1)n1cc(-c2ncnc3[nH]ccc23)cn1 [Ruxolitinib]	0.7 ± 0.01	6.1 ± 0.6	17.4 ± 8.6	1	10.7 ± 3.7
CCCc1nn(C)c2c(=O)[nH]c(-c3cc(S(=O)(=O)N4CCN(C)CC4)ccc3OCC)nc12 [Sildenafil]	2.4 ± 0.1	20.5 ± 3.1	39 ± 12.8	4	68 ± 20.1
CCOC(=O)c1c(CSc2ccccc2)n(C)c2cc(Br)c(O)c(CN(C)C)c12 [Umifenovir (Arbidol), Umifenovir]	0.7 ± 0.2	58.6 ± 21.9	3.5 ± 1.2	6	14.9 ± 4.9
